Holding throughout (test): NCI-60 cell line screen, 48 h
The test system of assay [1] is TK-10 renal.
Assay [2] concerns LOX IMVI melanoma.
The subject of assay [3] is RXF 393 renal.
The subject of assay [4] is NCI-H460 lung.
In assay [5] the test system is HCT-116 colon.
The test system of assay [6] is OVCAR-3 ovarian.
For assay [7], the system named is HT29 colon.
Assay [8] relates to SF-268 CNS.
For assay [9], the system named is HCC-2998 colon.

SMILES strings stand for the structures.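 Grown in 96-well plates, cells were treated for 48 hours with each compound at five concentrations. Insufficient inhibition: endpoint recorded as highest concentration tested. Abbreviation: GI50, concentration required for 50% inhibition of growth. TGI denotes the concentration required for complete inhibition of growth.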

The text below walks through data of PubChem BioAssay (NCI).

Take `COc1cc2c(cc1OC)-c1ncc3cc(OC)c(OC)cc3c1C2`: the GI50 in assay [1], in [2], in [3], in assay [4], in assay [5] and in assay [6] was > 50 µM in each case. In addition, the GI50 in [7] was > 50 µM. Further, the TGI in assay [1], in assay [2], in assay [3], in assay [4], in assay [5] and in assay [6] was > 50 µM each time. For the same compound, the TGI in assay [7] was > 50 µM.
Regarding `CC(C)=CCC/C(C)=C/CC/C(C)=C/C1CCC(=O)C1(C)C` (stereo not drawn), the TGI in assay [8] was 33.6 µM; in assay [1], > 100 µM; in assay [2], 28.9 µM; in [3] it was 37.5 µM; in [4], 32.6 µM; in [5], 30.7 µM. Besides, the TGI in assay [9] is 38.2 µM; in assay [6] it was 32.5 µM; in [7], 32.4 µM.
`Cc1nc(-n2nc(-c3ccccc3)cc2-c2ccccc2)sc1C(=O)/C=C/c1ccc(Cl)cc1`: the TGI in assay [8] is > 100 µM; in assay [1], > 100 µM; in assay [2], 27.9 µM; in assay [3] it was 28.1 µM; in assay [4], 76.5 µM; in assay [9] it was 29.9 µM. Further, the TGI worked out at 35.6 µM in [6] and 29.6 µM in assay [7].
Regarding `[N-]=[N+]=NC1C2CC3CC(C2)CC1C3` (stereo not drawn), the TGI in [1], in [2], in [4], in assay [5], in assay [9] and in [6] was > 100 µM throughout. Besides, in [7], the TGI is > 100 µM.
As for `CCN(CC)/[N+]([O-])=N/OCC(C)O` (stereo not drawn), the TGI in assay [8], in assay [1], in assay [2], in [3], in assay [4] and in [5] was > 100 µM each time. For the same compound, the TGI in [9], in assay [6] and in [7] was > 100 µM each time.
Take `COC(=O)C1=C(O)c2cc3c(cc2[C@H](c2cc(OC)c(OC)c(OC)c2)C1)OCO3`: the TGI in assay [8], in assay [1], in [2], in assay [3], in [4] and in assay [5] was > 100 µM throughout. The TGI in assay [6] is 55.7 µM; in assay [7] it was > 100 µM.
As for `CC(=O)Oc1cc(Cl)c(OC(C)=O)c2c(OC(C)=O)c(C)c(O[Si](C)(C)C(C)(C)C)cc12`, the TGI in [8] was found to be 26.2 µM; in assay [1], 17.6 µM; in assay [2] it was 12.9 µM; in assay [3] it was 11.2 µM; in [4], 16.5 µM; in assay [5], 13.6 µM. The TGI in assay [9] came out at 15.5 µM; in [6], 29.3 µM.
As to `COc1ccc(/C=C2\CCc3ccccc3C2=O)cc1OC`, the TGI in [8] is 62.6 µM; in assay [1], > 100 µM; in [4], > 100 µM; in [5] it was 36.7 µM; in assay [9] it was > 100 µM; in assay [6], > 100 µM. Moreover, the TGI in assay [7] was > 100 µM.
As for `CC(C)c1cc(C(=O)[O-])c(O)c(C(C)C)c1.CC(C)c1cc(C(=O)[O-])c(O)c(C(C)C)c1.CC(C)c1cc(C(=O)[O-])c(O)c(C(C)C)c1.CC(C)c1cc(C(=O)[O-])c(O)c(C(C)C)c1.CC(C)c1cc(C(=O)[O-])c(O)c(C(C)C)c1.CC(C)c1cc(C(=O)[O-])c(O)c(C(C)C)c1.[Cu+2].[Mn+2].[Mn+2]`, the GI50 was 35.5 µM in assay [8]; 39.5 µM in [1]; 17 µM in [2]; 15.8 µM in [4]; 21.2 µM in assay [5]; 2.87 µM in assay [6]. In addition, the GI50 in [7] was 15.6 µM. Also, the TGI in assay [8] is 82.7 µM; in assay [1] it was 91.7 µM; in assay [2], 36.3 µM; in assay [4], 32.2 µM; in [5], 37.8 µM; in [6], 10.4 µM. In addition, the TGI in assay [7] was found to be 31.4 µM.
In the case of `COc1c(Cl)[c]([Hg][O]C(C)=O)c(NCC(C)=O)c(OC)[c]1[Hg][O]C(C)=O`, the GI50 in [8] is 11.4 µM; in [1], 14.3 µM; in assay [2], 33.4 µM; in assay [3] it was 14.4 µM; in assay [4] it was 33.2 µM; in [9], 16.9 µM. Also, the GI50 in assay [6] was 10.2 µM; in assay [7], 19.5 µM. Moreover, the TGI was 30.8 µM in assay [8]; 27.7 µM in assay [1]; > 100 µM in [2]; 30.4 µM in assay [3]; > 100 µM in assay [4]; 39.1 µM in assay [9]. For the same compound, the figures for the TGI in [6] and in assay [7] were 21.8 µM and 48.2 µM, respectively.
Take `CC(C)C1NC(=O)[C@H](C)OC(=O)[C@@H](C(C)C)NC(=O)[C@@H](C)OC(=O)C(C(C)C)NC(=O)[C@H](C)OC1=O` (stereo partly drawn): the TGI in [8] was > 100 µM; in assay [1], > 100 µM; in assay [2] it was > 79 µM; in [4], > 100 µM; in assay [5], > 100 µM; in assay [9], > 100 µM. In addition, the TGI in assay [6] and in assay [7] was > 100 µM each time.
Regarding `O=c1c(-c2nc3ccccc3[nH]2)cc2ccccc2n1Cc1cn(Cc2ccccc2Cl)nn1`, the GI50 in [8] was 2.4 µM; in [1], 2.52 µM; in assay [4], 2.01 µM; in assay [9] it was 4.19 µM; in assay [6], 2.01 µM; in assay [7] it was 2.2 µM. Also, the TGI in assay [8] came to 8.74 µM; in assay [1], 6.65 µM; in [4], 3.88 µM; in assay [9], 37.4 µM; in [6] it was 4.17 µM; in [7], 4.7 µM.
For the compound `CCCCCN(CCCCC)C(=O)[C@H](CCC(=O)OCc1ccccc1)NC(=O)c1cc2ccccc2[nH]1`, the TGI in [8], in [2], in [3], in assay [4], in assay [5] and in [9] was > 100 µM in each case. For the same compound, the TGI in assay [6] and in [7] was > 100 µM in each case.
For `CCC(C)(C)NS(=O)(=O)c1ccccc1`, the TGI in [1], in assay [3], in assay [4], in assay [5], in [9] and in assay [6] was > 100 µM throughout. Besides, the TGI in [7] is > 100 µM.
Consider `COc1ccc2c(c1OC)C(C=C(c1ccccc1)c1ccccc1)CN(C)C2` (stereo not drawn), for which the TGI in assay [8] was 72.2 µM; in assay [1], 76.1 µM; in assay [4] it was 31.9 µM; in assay [5] it was 20.7 µM; in assay [9], 67.1 µM; in [6] it was 59.9 µM. In [7], this compound gave a TGI of 42.7 µM.
As for `C/C(=N\NS(=O)(=O)c1c(C)cc(C)cc1C)c1ccc[n+]([O-])n1`, the TGI is 53.7 µM in [8]; > 100 µM in assay [4]; 25.7 µM in assay [5]; > 100 µM in assay [9]; 25.3 µM in assay [6]; 36 µM in [7].
Consider `COC(=O)c1ccc(/C=C/S(=O)(=O)c2ccccc2)cc1`, for which the TGI in [8], in assay [1], in assay [2], in assay [3], in [4] and in [5] was > 100 µM throughout. The TGI in assay [6] and in assay [7] was > 100 µM in each case.
As for `Cc1ccc(-c2cc(=O)c3cc(C)c(C)c(C(=O)O)c3o2)cc1[N+](=O)[O-]`, the TGI in assay [8], in assay [1], in assay [2], in [3], in [4] and in assay [5] was > 100 µM throughout. The TGI in [6] and in assay [7] was > 100 µM each time.
With `CCCCCCCCCCCCC(NC(C)=O)(C(=O)OCC)C(=O)OCC`, the GI50 is 13.4 µM in assay [8]; 11.8 µM in assay [2]; 13.7 µM in assay [3]; 7.65 µM in assay [4]; 5.83 µM in assay [5]; 12.5 µM in assay [9]. In addition, in assay [6], the GI50 is 11.7 µM. The TGI was determined as 28.5 µM in [8]; 25.2 µM in [2]; 27 µM in [3]; 24 µM in assay [4]; 19.2 µM in [5]; 26.2 µM in assay [9]. The compound further displayed a TGI in [6] of 25.4 µM.
